{
  "source": "patent US20220133894A1",
  "about": "“BISPHOSPHONATE-LINKED COMPOUNDS” (OREGON HEALTH & SCIENCE UNIVERSITY, priority 2019, published 2022)",
  "key": {"VCaP cells": {"system": "VCaP cells", "experiment": "SRB growth inhibition assay, VCaP", "assay_type": "cell-based, human", "details": "10 μM enzalutamide, 10 μM KBU2046 added to control or enzalutamide treated cells, 72 hours", "description": "(§1) LNCaP or VCaP cells cultured in hormone free media were treated with R1881 (R), KBU2046 (46) and/or enzalutamide (E). (FIGS. 3A and 3B) Effects on AR-responsive gene expression. PSA expression was measured by qRT/PCR, normalized to GAPDH and expressed as a percent of control cells (N=3 replicates); * denotes P<0.05 for groups separated by bar. (FIGS. 3C and 3D) Effects on cell growth. Three day growth assays were performed. Data are the number of viable cells, expressed as % of control (N=3 replicates); * P<0.05 compared to control. (E) Effects on AR activation. Western blots of nuclear (N) and cytoplasmic (C) preparations of cell extracts were probed for AR, laminin 1 or α-tubulin. (FIGS. 3F and 3G) Effects on tumor outgrowth after androgen deprivation therapy. LNCaP/AR-luc cells were implanted subcutaneously (N=6 mice/cohort) or orthotopic (N=15 mice/cohort were implanted; N=5 yielded tumors) into castrate mice, treatment with KBU2046 began as noted, and weekly IVIS imaging performed. Data are tumor size, expressed as luminescence intensity. All data are expressed as mean±SEM.\nEnzalutamide mediated growth inhibition was assessed using Sulforhodamine B (SRB) growth inhibition assays, were performed as previously described (49). In brief, LNCaP and VCaP cells were pre-incubated in charcoal-striped medium for 48 hours and then seeded (1.9×10^4) in 96-well plates. […]"}, "[1]": {"system": "MDA-MB-231 human breast cancer cells", "experiment": "7 day colony formation assay, chemotherapy with or without KBU2046", "assay_type": "cell-based", "description": "To assess the impact of cytotoxic chemotherapy on PCa growth kinetics seven-day soft agar colony formation assays and three-day MTT cell growth inhibition assays were performed as described by us ([…] et al., Cancer Lett 352, 179-186 (2014)). MTT assays were in replicates of N=3, and were repeated, soft agar assays were in replicates of N=2 and are presented as mean number of colonies, expressed as percent of untreated controls. For PC3-M PCa and MDA-MB-231 triple negative breast cancer cells, data are the mean±SD (N=2 replicates) number of colonies in 7 day colony formation assays. All data are expressed as the percentage of untreated control cells. Cells were treated with 10 μM KBU2046 or vehicle (CO), and the indicated concentration and type of chemotherapy."}, "LNCaP/AR-luc cells": {"system": "LNCaP/AR-luc cells", "experiment": "Castration resistant PCa orthotopic implantation, tumor outgrowth", "assay_type": "in vivo, mice", "details": "orthotopic implants, 80 mg/kg KBU2046 oral, treatment from 12 weeks", "description": "To complete our assessments of the androgen related paradigm, the effect of KBU2046 on resistance to hormone therapy was evaluated. The outgrowth of LNCaP/AR-luc cells in castrate mice is routinely utilized as a model to emulate the transition to a castration resistant phenotype (Tran et al., Science 324, 787-790 (2009)). In this model, tumor outgrowth is detectable ˜8 weeks post implantation, and growth kinetics are typically monitored until 16 weeks post implantation. Here, two treatment approaches were investigated, the effects of beginning treatment early at 4 weeks, or late at 12 weeks, and were performed in mice receiving subcutaneous or orthotopic implants, respectively (FIGS. 3F and 3G).\nLNCaP or VCaP cells cultured in hormone free media were treated with R1881 (R), KBU2046 (46) and/or enzalutamide (E). (FIGS. 3A and 3B) Effects on AR-responsive gene expression. PSA expression was measured by qRT/PCR, normalized to GAPDH and expressed as a percent of control cells (N=3 replicates); * denotes P<0.05 for groups separated by bar. (FIGS. 3C and 3D) Effects on cell growth. Three day growth assays were performed. Data are the number of viable cells, expressed as % of control (N=3 replicates); * P<0.05 compared to control. (E) Effects on AR activation. […] Data are tumor size, expressed as luminescence intensity. All data are expressed as mean±SEM. […]"}, "[2]": {"system": "prostate specific antigen (PSA)", "experiment": "PSA expression by qRT/PCR in VCaP cells", "assay_type": "cell-based, human", "description": "Cells were cultured in media depleted of androgen and after a washout of 72 hrs were treated with the synthetic androgen R1881, KBU2046, enzalutamide and/or vehicle (control), and resultant effects upon induction of the androgen-responsive gene, prostate specific antigen (PSA) were measured (FIG. 3A).\nas §1\nRNA was isolated and qRT/PCR performed as previously described by us (Ding et al., J Biomol Tech 18, 321-330 (2007)). Resultant data were analyzed using the 2^−ΔΔt method (Livak et al., Methods 25, 402-408 (2001)), normalized to GAPDH, for the following primer/probe sets (ABI) PSA (Hs02576345_m1) and GAPDH (Hs99999905_m1). Assays were performed in triplicate, and were repeated."}},
  "data": [
    {"compound": "O=C1c2ccccc2OCC1c1ccc(F)cc1", "note": "(centres unmarked) [KBU2046, 3-(4-fluorophenyl)chroman-4-one]", "values": [
      {"measurement": "cell growth", "setting": "VCaP cells", "result": "no significant effect"},
      {"measurement": "effect on activity of adriamycin", "setting": "[1]; 10 μM KBU2046, MDA-MB-231 cells, FIG. 13", "result": "does not inhibit"},
      {"measurement": "effect on activity of vinblastine", "setting": "[1]; 10 μM KBU2046, MDA-MB-231 cells, FIG. 15", "result": "does not inhibit"},
      {"measurement": "effect on activity of taxol", "setting": "[1]; 10 μM KBU2046, MDA-MB-231 cells, FIG. 17", "result": "does not inhibit"},
      {"measurement": "interference upon cytotoxic action of adriamycin, taxol and vinblastine", "setting": "[1]; KBU2046 co-administered, MDA-MB-231 cells", "result": "lack of interference"},
      {"measurement": "tumor growth (outgrowth in castrate mice)", "setting": "LNCaP/AR-luc cells", "result": "did not alter"},
      {"measurement": "decrease of PSA expression in R1881 treated cells", "setting": "[2]; VCaP cells, R1881 treated", "result": 36, "unit": "%"},
      {"measurement": "relative increase of PSA expression in control cells", "setting": "[2]; VCaP control cells, very low baseline", "result": 14, "unit": "%"}
    ]}
  ]
}
